Source: publication PMC5399792 (Nucleic Acids Research, 2017)
Where “and” joins values, the source holds several entries; their conditions need not be identical. Equal values may be shown once. Read-outs that look alike come from different tables or passages of the source.

Tests used:
[1] = molecular target: influenza B polymerase initiating RNA synthesis at the cRNA promoter (cPol) (Influenza B virus, UniProt Q5V8Y6); assay: biochemical; assay type: biochemical, influenza B/Memphis/13/03
[2] = molecular target: influenza B polymerase, vPol (c5' hook) (Influenza B virus, UniProt Q5V8Y6); assay: biochemical; parameters: species or system influenza B/Memphis/13/03
[3] = molecular target: T1, influenza B polymerase initiating RNA synthesis at the vRNA promoter (vPol) (Influenza B virus, UniProt Q5V8X3+Q5V8Y6); assay: biochemical; settings: IC50 (mM)
influenza B polymerase = assay: Fluorescence anisotropy/polarization protein-RNA binding; parameters: species or system influenza B/Memphis/13/03; settings: for dissociation constant, polymerase + RNA (in words): each RNA separately
Method: Fluorescence spectroscopy was used to quantify protein–RNA interactions, employing either a plate reader or cuvette format. Using the cuvette, protein was successively added to FAM-Ex-5-labelled RNA (if not indicated otherwise) in binding buffer (50 mM HEPES/NaOH, 0.15 M NaCl, 10% (v/v) glycerol, 2 mM Tris(2-carboxyethyl)phosphine (TCEP), pH 7.4) at the concentrations indicated. After attaining equilibrium, total fluorescence intensity and fluorescence anisotropy were measured at T = 24°C with a fluorescence spectrometer (Photon Technology International) equipped with polarizers with excitation and emission wavelengths set to 495 and 515 nm, respectively. Total fluorescence intensity was corrected for the volume change due to addition of protein and the observed fluorescence anisotropy corrected for the change in fluorescence intensity according to Equation (1) ([17]): (1) where fb represents the fractional concentration of bound RNA, r the observed anisotropy, rf and rb the anisotropy of free and bound RNA, and If and Ib the fluorescence intensity of free and bound RNA, respectively. Using KaleidaGraph (Synergy Software), dissociation constants were derived by fitting the binding isotherms to a 1:1 binding model of RNA and protein according to Equation (2) (2) where fb represents the fractional concentration of bound RNA, L the total concentration of labelled RNA, P the concentration of protein and KD the dissociation constant.

Cy3-labelled v3΄ nt 1–18 = assay: FRET assay of RNA-RNA interaction with v3΄ nt 1–18; assay type: binding; settings: FAM-labelled 5΄ RNA, T = 25°C
Method: (§1) RNA–RNA interactions were quantified by a simple FRET-assay. Briefly, ∼0.01 μM short 5΄ RNAs labelled at their 3΄ ends by FAM-Ex-5 were incubated at T = 25°C in 384 well plates (FIA plate black, 128.0/85 mm, medium binding; Greiner Bio-One GmbH, Austria) in binding buffer (50 mM HEPES/NaOH, 0.15 M NaCl, 10% (v/v) glycerol, 2 mM Tris(2-carboxyethyl)phosphine (TCEP), pH 7.4) with 3΄ RNAs labelled at their 5΄ end by Cy3 at the concentrations indicated. After attaining equilibrium (∼0.5 h), the FAM's fluorescence intensity was recorded as averaged technical triplicates (excitation / emission = 485/520 nm; 10 nm band width; CLARIOstar, BMG Labtech, Germany). The decreasing fluorescence intensity with increasing Cy3-labelled 3΄ RNA is plotted relative to its initial value as mean values of at least duplicate experiments with the standard deviation indicated. Mean values were then analysed according to Equation (2) (with P equaling the concentration of Cy3-labelled 3΄ RNA; curve fitting yielded L = 0.007 μM and 0.004 μM for FAM-Ex-5-labelled c5΄ and v5΄ nts 1–18, respectively), yielding the corresponding dissociation constants and error of the fitting routine stated. 0.2 μM FAM-Ex-5-labelled v5΄ nt 1–10 were used to study its weak interaction with either Cy3-labelled v3΄ nt 1–9 or v3΄ nt 1–18.

[4] = molecular target: Cy3-labelled c3΄ RNA (18-mer); assay: FRET assay of RNA-RNA interaction with c3΄ RNA; assay type: binding; settings: FAM-labelled 5΄ RNA, T = 25°C
Method: as §1

[5] = molecular target: T1, influenza B polymerase initiating RNA synthesis at the vRNA promoter (vPol); settings: read-out: KM of primer, vPol, 0.5 mM NTPs, 0.15 μM template v3΄ 1–18, 0.25 μM polymerase, T = 24°C
influenza polymerase = system: influenza polymerase; parameters: method as in PMID 8585725; settings: in vitro and cell culture experiments; cited from earlier work
[6] = 0.025 mM NTPs, capped RNA primed, T ∼ 21°C, t = 176 or 100 min, read-out: IC50 (mM), cPol
[7] = 0.25 mM NTPs, capped RNA primed, T ∼ 21°C, t = 15 or 10 min, read-out: IC50 (mM), cPol
[8] = 0.025 mM NTPs, capped RNA primed, T ∼ 21°C, t = 5 min, not duplicate, read-out: IC50 (mM), vPol (c5' hook)
[9] = 0.025 mM NTPs, capped RNA primed, T ∼ 21°C, t = 5 min
[10] = 0.25 mM NTPs, capped RNA primed, T ∼ 21°C, t = 5 min

With `Nc1ccn([C@@H]2O[C@H](COP(=O)(O)OP(=O)(O)OP(=O)(O)O)[C@@H](O)[C@H]2F)c(=O)n1` [2'F-2'dCTP] the IC50 ([1]; IC50 (mM), cPol) was 1.5 mM and 2.1 mM, the IC50 [2] was 0.1 mM and the IC50 [3] was 0.21 mM and 1.4 mM.
With `O=c1ccn([C@@H]2O[C@H](COP(=O)(O)OP(=O)(O)OP(=O)(O)O)[C@@H](O)[C@H]2F)c(=O)[nH]1` [2'F-2'dUTP] the IC50 ([1]; IC50 (mM), cPol) was 1.1 mM and 1.8 mM, the IC50 [2] was 0.3 mM and the IC50 [3] was 0.45 mM and 3.1 mM.
With 5′-pAGCAGAAGCAGAGGUAUA-3′ [c5'] the “dissociation constant, polymerase + RNA (in words)” value (“dissociation constant” below) (influenza B polymerase) was “low nanomolar range”, the Kd (influenza B polymerase; fluorescently labelled RNA, binding buffer pH 7.4, read-out: KD, polymerase + promoter RNA) was less than 0.01 µM and the Kd (Cy3-labelled v3΄ nt 1–18) was 30 pM. For the same molecule, the Kd (Cy3-labelled v3΄ nt 1–18; listed as c5΄) was roughly 30 pM, the Kd [4] was 0.0016 ± 0.0003 µM and the Kd ([4]; listed as c5΄) was roughly 0.0016 µM.
In the case of “5΄-UAUACCUCUGCUUCUGCU-3΄ (chemistry not given here) [v3', genomic vRNA 3΄ end, 18 nucleotides]”, the “dissociation constant” value (influenza B polymerase) is reported as “low nanomolar range”.
With 5΄-m^7GpppAAUCUAUAAUAG-3΄ [capped RNA] the Km ([1]; 0.5 mM NTPs, 0.15 μM template c3΄ 1–18, 0.25 μM polymerase, T = 24°C, read-out: KM (capped RNA), cPol) was 0.12 ± 0.03 µM and the Km [5] was 0.027 ± 0.01 µM.
`Nc1ncnc2c1ncn2[C@@H]1O[C@H](COP(=O)(O)OP(=O)(O)OP(=O)(O)O)[C@@H](O)[C@H]1F` [2'F-2'dATP] showed an IC50 [1, 6] of 0.7 mM, an IC50 [1, 7] of 0.38 mM and an IC50 [2, 8] of 0.03 mM. For the same molecule, the IC50 [3, 9] was 0.03 mM and the IC50 [3, 10] was 0.3 mM.
`Nc1nc2c(ncn2[C@@H]2O[C@H](COP(=O)(O)OP(=O)(O)OP(=O)(O)O)[C@@H](O)[C@H]2F)c(=O)[nH]1` [2'F-2'dGTP] showed an IC50 [1, 6] of 0.28 mM, an IC50 [1, 7] of 0.43 mM and an IC50 [2, 8] of 0.01 mM. For the same molecule, the “mode of inhibition of influenza polymerase with respect to GTP” value (influenza polymerase) was “reversibly and competitively”, the IC50 [3, 9] was 0.02 mM and the IC50 [3, 10] was 0.2 mM.
For “5′-UACCCUCUUGUUACUACU-3′ (chemistry not given here) [c3', anti-genomic cRNA 3΄ end, 18 nucleotides]”, the “dissociation constant” value (influenza B polymerase) was “low nanomolar range”.
Molecule 5΄-pAGUAGUAACAAGAG-3΄ [non-capped RNA] has a Km [5] of 1.1 ± 0.2 µM and a Km ([5]; listed as v5′ 1-14) of roughly 1 µM.
